# Measurements taken from PubChem BioAssay (NCI).
#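 All cell lines were grown in 96-well plates and treated with compound for 48 hours. TGI: concentration producing complete growth inhibition.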
# Assays:
# Assay in all cases: inhibition of tumour cell growth, NCI panel, 48 h
# SK-OV-3 ovarian = test system: SK-OV-3 ovarian
# SF-295 CNS = test system: SF-295 CNS
# M14 melanoma = test system: M14 melanoma
# EKVX NSCLC = test system: EKVX NSCLC
# A498 renal = test system: A498 renal
# MALME-3M melanoma = test system: MALME-3M melanoma
# CCRF-CEM leukemia = test system: CCRF-CEM leukemia
# SF-539 CNS = test system: SF-539 CNS
# LOX IMVI melanoma = test system: LOX IMVI melanoma
# MOLT-4 leukemia = test system: MOLT-4 leukemia
# SNB-78 CNS = test system: SNB-78 CNS
# COLO 205 colon = test system: COLO 205 colon
# CAKI-1 renal = test system: CAKI-1 renal
# IGROV1 ovarian = test system: IGROV1 ovarian
# RPMI-8226 leukemia = test system: RPMI-8226 leukemia
# M19-MEL melanoma = test system: M19-MEL melanoma
# A549 NSCLC = test system: A549 NSCLC
# OVCAR-5 ovarian = test system: OVCAR-5 ovarian
# HCT-15 colon = test system: HCT-15 colon
# DLD-1 colon = test system: DLD-1 colon
# NCI-H23 lung = test system: NCI-H23 lung
# UO-31 renal = test system: UO-31 renal
# UACC-257 melanoma = test system: UACC-257 melanoma
# DMS 114 small cell lung = test system: DMS 114 small cell lung
# SNB-75 CNS = test system: SNB-75 CNS
# OVCAR-8 ovarian = test system: OVCAR-8 ovarian
# U251 CNS = test system: U251 CNS
# SNB-19 CNS = test system: SNB-19 CNS
# 786-0 renal = test system: 786-0 renal
# LXFL 529 NSCLC = test system: LXFL 529 NSCLC
# HT29 colon = test system: HT29 colon
# OVCAR-3 ovarian = test system: OVCAR-3 ovarian
# SK-MEL-28 melanoma = test system: SK-MEL-28 melanoma
# TK-10 renal = test system: TK-10 renal
# SN12C renal = test system: SN12C renal
# HCT-116 colon = test system: HCT-116 colon
# NCI-H522 lung = test system: NCI-H522 lung
# ACHN renal = test system: ACHN renal
# RXF 393 renal = test system: RXF 393 renal
# XF 498 CNS = test system: XF 498 CNS
# DMS 273 small cell lung = test system: DMS 273 small cell lung
# NCI-H460 lung = test system: NCI-H460 lung
# KM20L2 colon = test system: KM20L2 colon
# OVCAR-4 ovarian = test system: OVCAR-4 ovarian
# KM12 colon = test system: KM12 colon
# HOP-62 NSCLC = test system: HOP-62 NSCLC
# SF-268 CNS = test system: SF-268 CNS
# K-562 leukemia = test system: K-562 leukemia
# UACC-62 melanoma = test system: UACC-62 melanoma
# SK-MEL-5 melanoma = test system: SK-MEL-5 melanoma
# NCI-H226 lung = test system: NCI-H226 lung
# SK-MEL-2 melanoma = test system: SK-MEL-2 melanoma
# SW-620 colon = test system: SW-620 colon
compound,measurement,setting,value
NC(N)=NS(=O)(=O)c1ccc(NC(=O)c2cccc3cc4ccccc4nc23)cc1,TGI,SK-OV-3 ovarian,> 100 µM
same,TGI,SF-295 CNS,> 100 µM
same,TGI,M14 melanoma,> 100 µM
same,TGI,EKVX NSCLC,> 100 µM
same,TGI,A498 renal,> 100 µM
same,TGI,MALME-3M melanoma,> 100 µM
same,TGI,CCRF-CEM leukemia,> 100 µM
same,TGI,SF-539 CNS,> 100 µM
same,TGI,LOX IMVI melanoma,> 100 µM
same,TGI,MOLT-4 leukemia,> 100 µM
same,TGI,SNB-78 CNS,> 100 µM
same,TGI,COLO 205 colon,> 100 µM
same,TGI,CAKI-1 renal,> 100 µM
same,TGI,IGROV1 ovarian,> 100 µM
same,TGI,RPMI-8226 leukemia,> 100 µM
same,TGI,M19-MEL melanoma,> 100 µM
same,TGI,A549 NSCLC,> 100 µM
same,TGI,OVCAR-5 ovarian,> 100 µM
same,TGI,HCT-15 colon,> 100 µM
same,TGI,DLD-1 colon,> 100 µM
same,TGI,NCI-H23 lung,> 100 µM
same,TGI,UO-31 renal,> 100 µM
same,TGI,UACC-257 melanoma,> 100 µM
same,TGI,DMS 114 small cell lung,> 100 µM
same,TGI,SNB-75 CNS,> 100 µM
same,TGI,OVCAR-8 ovarian,> 100 µM
same,TGI,U251 CNS,> 100 µM
same,TGI,SNB-19 CNS,31.8 µM
same,TGI,786-0 renal,> 100 µM
same,TGI,LXFL 529 NSCLC,> 100 µM
same,TGI,HT29 colon,> 100 µM
same,TGI,OVCAR-3 ovarian,> 100 µM
same,TGI,SK-MEL-28 melanoma,> 100 µM
same,TGI,TK-10 renal,> 100 µM
same,TGI,SN12C renal,> 100 µM
same,TGI,HCT-116 colon,> 100 µM
same,TGI,NCI-H522 lung,> 100 µM
same,TGI,ACHN renal,> 100 µM
same,TGI,RXF 393 renal,> 100 µM
same,TGI,XF 498 CNS,> 100 µM
same,TGI,DMS 273 small cell lung,> 100 µM
same,TGI,NCI-H460 lung,> 100 µM
same,TGI,KM20L2 colon,> 100 µM
same,TGI,OVCAR-4 ovarian,85.7 µM
same,TGI,KM12 colon,> 100 µM
same,TGI,HOP-62 NSCLC,> 100 µM
same,TGI,SF-268 CNS,> 100 µM
same,TGI,K-562 leukemia,> 100 µM
same,TGI,UACC-62 melanoma,> 100 µM
same,TGI,SK-MEL-5 melanoma,> 100 µM
same,TGI,NCI-H226 lung,> 100 µM
same,TGI,SK-MEL-2 melanoma,> 100 µM
same,TGI,SW-620 colon,> 100 µM
